Laboratory results published in US20140243335A1, “SUBSTITUTED HYDOXAMIC ACIDS AND USES THEREOF” (Millennium Pharmaceuticals, Inc., priority 2010, published 2014).

Biological target: T1, purified human HDAC6 (Homo sapiens, UniProt Q9UBN7)
T1 construct: purchased BPS Bioscience 5006
T1 sequence (Q9UBN7 1-1215): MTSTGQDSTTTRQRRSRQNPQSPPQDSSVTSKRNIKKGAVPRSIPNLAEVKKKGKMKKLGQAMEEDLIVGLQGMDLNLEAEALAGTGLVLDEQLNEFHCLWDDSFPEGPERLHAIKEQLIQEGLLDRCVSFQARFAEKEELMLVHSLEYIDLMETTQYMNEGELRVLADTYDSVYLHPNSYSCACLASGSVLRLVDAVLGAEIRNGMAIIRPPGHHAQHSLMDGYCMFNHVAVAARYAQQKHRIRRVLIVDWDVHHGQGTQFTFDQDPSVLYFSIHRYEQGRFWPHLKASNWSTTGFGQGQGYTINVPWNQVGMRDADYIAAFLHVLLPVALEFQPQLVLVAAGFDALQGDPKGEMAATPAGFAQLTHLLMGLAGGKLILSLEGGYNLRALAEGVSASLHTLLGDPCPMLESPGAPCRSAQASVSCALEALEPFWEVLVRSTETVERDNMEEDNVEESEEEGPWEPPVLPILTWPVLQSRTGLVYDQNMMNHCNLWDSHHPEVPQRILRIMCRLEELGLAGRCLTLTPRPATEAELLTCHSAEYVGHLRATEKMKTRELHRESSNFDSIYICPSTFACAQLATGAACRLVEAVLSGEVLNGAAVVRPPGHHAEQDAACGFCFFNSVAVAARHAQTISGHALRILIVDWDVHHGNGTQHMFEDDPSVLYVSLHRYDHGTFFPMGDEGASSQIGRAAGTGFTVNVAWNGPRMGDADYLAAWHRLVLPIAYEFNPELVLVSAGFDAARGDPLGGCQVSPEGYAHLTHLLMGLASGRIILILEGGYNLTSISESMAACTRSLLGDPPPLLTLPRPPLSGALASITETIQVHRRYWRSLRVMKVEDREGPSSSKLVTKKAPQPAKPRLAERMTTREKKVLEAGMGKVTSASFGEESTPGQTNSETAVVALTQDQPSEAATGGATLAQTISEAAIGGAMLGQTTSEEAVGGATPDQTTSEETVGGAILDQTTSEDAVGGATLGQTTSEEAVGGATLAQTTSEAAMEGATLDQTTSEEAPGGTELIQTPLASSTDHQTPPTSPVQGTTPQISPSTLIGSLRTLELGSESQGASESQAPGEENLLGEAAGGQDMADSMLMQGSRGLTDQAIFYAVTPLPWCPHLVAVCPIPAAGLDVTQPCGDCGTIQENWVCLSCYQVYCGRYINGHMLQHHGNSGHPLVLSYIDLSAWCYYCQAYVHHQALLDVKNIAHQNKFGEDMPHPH
Assay: HDAC6 Enzyme Assay
Assay type: biochemical
Conditions: HDAC6 inhibition at a compound concentration of 0.412 μM; read-out: Percent Inhibition at 0.412 μM
Procedure: To measure the inhibition of HDAC6 activity, purified human HDAC6 (BPS Bioscience; Cat. No. 5006) is incubated with substrate Ac-Arg-Gly-Lys(Ac)-AMC peptide (Bachem Biosciences; Cat. No. I-1925) for 1 hour at 30° C. in the presence of test compounds or vehicle DMSO control. The reaction is stopped with the HDAC inhibitor trichostatin A (Sigma; Cat. No. T8552) and the amount of Arg-Gly-Lys-AMC generated is quantitated by digestion with trypsin (Sigma; Cat. No. T1426) and subsequent measurement of the amount of AMC released using a fluorescent plate reader (Pherastar; BMG Technologies) set at Ex 340 nm and Em 460 nm. Concentration response curves are generated by calculating the fluorescence increase in test compound-treated samples relative to DMSO-treated controls, and enzyme inhibition (IC50) values are determined from those curves.

SMILES | inhibition at 0.412 µM
COc1cccc2cc(C(=O)NC3CCCc4cc(C(=O)NO)ccc43)oc12 (centres unmarked) [Compound I-33, N-{6-[(hydroxyamino)carbonyl]-1,2,3,4-tetrahydronaphthalen-1-yl}-7-methoxy-1-benzofuran-2-carboxamide] | 62%
COc1ccc2c(CC(=O)NC3CCCc4cc(C(=O)NO)ccc43)coc2c1 (centres unmarked) [Compound I-36, N-hydroxy-5-{[(6-methoxy-1-benzofuran-3-yl)acetyl]amino}-5,6,7,8-tetrahydronaphthalene-2-carboxamide] | 26%
O=C(NO)c1ccc2c(c1)CC(c1ccc(N3CCNCC3)nc1)CC2 (centres unmarked) [Compound I-190, N-hydroxy-7-(6-piperazin-1-ylpyridin-3-yl)-5,6,7,8-tetrahydronaphthalene-2-carboxamide] | 90%
O=C(NO)c1ccc2c(c1)C1CCC2N1C(=O)c1cc2ccccc2s1 (centres unmarked) [Compound I-204, 9-(1-benzothien-2-ylcarbonyl)-N-hydroxy-1,2,3,4-tetrahydro-1,4-epiminonaphthalene-6-carboxamide] | 23%
Cc1nc(-c2ccccn2)sc1C(=O)N1C2CCC1c1cc(C(=O)NO)ccc12 (centres unmarked) [Compound I-206] | 18%
O=C(NO)c1ccc2c(c1)C1CCC2N1C(=O)c1cc2ccccc2o1 (centres unmarked) [Compound I-202, 9-(1-benzofuran-2-ylcarbonyl)-N-hydroxy-1,2,3,4-tetrahydro-1,4-epiminonaphthalene-6-carboxamide] | 19%
CC(C)(C)c1ccc(C(=O)NC2CCCc3cc(C(=O)NO)ccc32)cc1 (centres unmarked) [Compound I-16, 5-[(4-tert-butylbenzoyl)amino]-N-hydroxy-5,6,7,8-tetrahydronaphthalene-2-carboxamide] | 55%
CCc1cc(C(=O)NC2CCCc3cc(C(=O)NO)ccc32)n(C)n1 (centres unmarked) [Compound I-2, 3-ethyl-N-{6-[(hydroxyamino)carbonyl]-1,2,3,4-tetrahydronaphthalen-1-yl}-1-methyl-1H-pyrazole-5-carboxamide] | 35%
O=C(Cc1c(F)cccc1F)NC1CCCc2cc(C(=O)NO)ccc21 (centres unmarked) [Compound I-1, 5-{[(2,6-difluorophenyl)acetyl]amino}-N-hydroxy-5,6,7,8-tetrahydronaphthalene-2-carboxamide] | 34%
CC1(C(=O)N2C3CCC2c2cc(C(=O)NO)ccc23)CCCCC1 (centres unmarked) [Compound I-196, N-hydroxy-9-[(1-methylcyclohexyl)carbonyl]-1,2,3,4-tetrahydro-1,4-epiminonaphthalene-6-carboxamide] | 32%
Cc1nc(C(=O)N2C3CCC2c2cc(C(=O)NO)ccc23)cs1 (centres unmarked) [Compound I-208, N-hydroxy-9-[(2-methyl-1,3-thiazol-4-yl)carbonyl]-1,2,3,4-tetrahydro-1,4-epiminonaphthalene-6-carboxamide] | 34%
O=C(NO)c1ccc2c(c1)CCCC2NC(=O)c1ccc(C(F)(F)F)cc1 (centres unmarked) [Compound I-20, N-hydroxy-5-{[4-(trifluoromethyl)benzoyl]amino}-5,6,7,8-tetrahydronaphthalene-2-carboxamide] | 30%
CC(=O)N/C(=C\c1ccccc1)C(=O)NC1CCCc2cc(C(=O)NO)ccc21 (centres unmarked) [Compound I-27, 5-{[(2Z)-2-(acetylamino)-3-phenylprop-2-enoyl]amino}-N-hydroxy-5,6,7,8-tetrahydronaphthalene-2-carboxamide] | 11%
O=C(NO)c1ccc2c(c1)C1CCC2N1C(=O)c1sc2ccccc2c1Cl (centres unmarked) [Compound I-203, 9-[(3-chloro-1-benzothien-2-yl)carbonyl]-N-hydroxy-1,2,3,4-tetrahydro-1,4-epiminonaphthalene-6-carboxamide] | 53%

Other lines, results leading:

inhibition at 0.412 µM | SMILES
47% | O=C(NO)c1ccc2c(c1)CCCC2NC(=O)c1cc2ccccc2o1 (centres unmarked) [Compound I-45, N-{6-[(hydroxyamino)carbonyl]-1,2,3,4-tetrahydronaphthalen-1-yl}-1-benzofuran-2-carboxamide]
59% | O=C(NO)c1ccc2c(c1)CCC(NC(=O)C13CC4CC(CC(C4)C1)C3)C2 (centres unmarked) [Compound I-57, N-{6-[(hydroxyamino)carbonyl]-1,2,3,4-tetrahydronaphthalen-2-yl}adamantane-1-carboxamide]
92% | O=C(NO)c1ccc2c(c1)CCC(Oc1ccnc(C(=O)NC3CCNCC3)c1)C2 (centres unmarked) [Compound I-220, 4-({6-[(hydroxyamino)carbonyl]-1,2,3,4-tetrahydronaphthalen-2-yl}oxy)-N-piperidin-4-ylpyridine-2-carboxamide]
85% | O=C(NO)c1ccc2c(c1)CC(Nc1cccc(Cl)c1)CC2 (centres unmarked) [Compound I-82, 7-[(3-chlorophenyl)amino]-N-hydroxy-5,6,7,8-tetrahydronaphthalene-2-carboxamide]
82% | COc1cccc(NC2CCc3ccc(C(=O)NO)cc3C2)c1 (centres unmarked) [Compound I-84, N-hydroxy-7-[(3-methoxyphenyl)amino]-5,6,7,8-tetrahydronaphthalene-2-carboxamide]
75% | CC(C)(C)C(=O)NC1CCc2cc(C(=O)NO)ccc2C1 (centres unmarked) [Compound I-111, 6-[(2,2-dimethylpropanoyl)amino]-N-hydroxy-5,6,7,8-tetrahydronaphthalene-2-carboxamide]
75% | Cn1cccc1C(=O)NC1CCc2cc(C(=O)NO)ccc2C1 (centres unmarked) [Compound I-62, N-(6-(hydroxycarbamoyl)-1,2,3,4-tetrahydronaphthalen-2-yl)-1-methyl-1H-pyrrole-2-carboxamide]
55% | O=C(NO)c1ccc2c(c1)CCC(c1ccc(Cl)cc1)C2 (centres unmarked) [Compound I-101, 6-(4-chlorophenyl)-N-hydroxy-5,6,7,8-tetrahydronaphthalene-2-carboxamide]
95% | O=C(NO)c1ccc2c(c1)CCC(Oc1ccnc(NC(=O)C3CCNCC3)c1)C2 (centres unmarked) [Compound I-225, N-[4-({6-[(hydroxyamino)carbonyl]-1,2,3,4-tetrahydronaphthalen-2-yl}oxy)pyridin-2-yl]piperidine-4-carboxamide]
93% | CC1(C(=O)Nc2cc(OC3CCc4cc(C(=O)NO)ccc4C3)ccn2)CCNCC1 (centres unmarked) [Compound I-148, N-[4-({6-[(hydroxyamino)carbonyl]-1,2,3,4-tetrahydronaphthalen-2-yl}oxy)pyridin-2-yl]-4-methylpiperidine-4-carboxamide]
85% | O=C(NO)c1ccc2c(c1)CC(c1ccccc1C(F)(F)F)CC2 (centres unmarked) [Compound I-185, N-hydroxy-7-[2-(trifluoromethyl)phenyl]-5,6,7,8-tetrahydronaphthalene-2-carboxamide]
86% | CC(C)(C)C(=O)Nc1cc(OC2CCc3cc(C(=O)NO)ccc3C2)ccn1 (centres unmarked) [Compound I-150, 6-({2-[(2,2-dimethylpropanoyl)amino]pyridin-4-yl}oxy)-N-hydroxy-5,6,7,8-tetrahydronaphthalene-2-carboxamide]
80% | O=C(NO)c1ccc2c(c1)CCC(c1cccnc1)C2 (centres unmarked) [Compound I-121, N-hydroxy-6-pyridin-3-yl-5,6,7,8-tetrahydronaphthalene-2-carboxamide]
90% | CC(C)N1CCC(C)(C(=O)Nc2cc(OC3CCc4cc(C(=O)NO)ccc4C3)ccn2)CC1 (centres unmarked) [Compound I-219, N-[4-({6-[(hydroxyamino)carbonyl]-1,2,3,4-tetrahydronaphthalen-2-yl}oxy)pyridin-2-yl]-1-isopropyl-4-methylpiperidine-4-carboxamide]
41% | CC(C)(C)OC(=O)N1CCC(C2CCc3ccc(C(=O)NO)cc3C2)CC1 (centres unmarked) [Compound I-221, tert-butyl 4-{7-[(hydroxyamino)carbonyl]-1,2,3,4-tetrahydronaphthalen-2-yl}piperidine-1-carboxylate]
